Legend:
[1] = molecular target: T1, Rat Androgen Receptors (Rat AR) (Rattus norvegicus, UniProt P15207); assay: Test for competitive binding to rat androgen receptors (3H-testosterone displacement, prostate AR fraction); conditions: RBA=100×(IC50 of hydroxyflutamide)/(IC50 of the compound)
T1 construct: from tissue; host or cells: prostate of orchiectomized 11-week-old male SD rats (100,000 x g supernatant of the homogenate)
T1 sequence (P15207 1-902): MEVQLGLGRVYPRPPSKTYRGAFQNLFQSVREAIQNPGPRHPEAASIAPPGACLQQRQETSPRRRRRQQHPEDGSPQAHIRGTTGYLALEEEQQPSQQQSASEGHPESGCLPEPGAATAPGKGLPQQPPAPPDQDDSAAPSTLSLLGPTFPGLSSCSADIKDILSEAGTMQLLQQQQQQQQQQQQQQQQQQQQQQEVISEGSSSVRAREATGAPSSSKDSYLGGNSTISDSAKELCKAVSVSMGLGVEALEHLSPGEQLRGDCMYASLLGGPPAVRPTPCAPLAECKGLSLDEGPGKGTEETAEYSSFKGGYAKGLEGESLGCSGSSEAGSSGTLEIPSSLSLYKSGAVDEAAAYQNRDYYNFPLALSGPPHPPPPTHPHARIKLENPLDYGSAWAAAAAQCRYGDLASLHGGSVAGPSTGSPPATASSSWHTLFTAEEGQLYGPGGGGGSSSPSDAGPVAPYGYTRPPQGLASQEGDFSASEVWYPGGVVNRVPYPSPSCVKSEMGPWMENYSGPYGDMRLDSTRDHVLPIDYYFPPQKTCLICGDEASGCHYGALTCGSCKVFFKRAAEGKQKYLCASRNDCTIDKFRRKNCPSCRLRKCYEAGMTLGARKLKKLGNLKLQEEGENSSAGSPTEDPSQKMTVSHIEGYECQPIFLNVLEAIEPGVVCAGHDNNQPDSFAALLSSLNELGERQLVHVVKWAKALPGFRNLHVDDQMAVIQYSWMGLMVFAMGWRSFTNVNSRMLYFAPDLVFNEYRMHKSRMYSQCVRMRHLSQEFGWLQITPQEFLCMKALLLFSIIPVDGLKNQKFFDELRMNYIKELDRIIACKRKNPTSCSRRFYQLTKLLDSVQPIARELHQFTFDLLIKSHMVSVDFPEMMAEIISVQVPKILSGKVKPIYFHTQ
Protocol: Test for Competitive Binding to Rat Androgen Receptors (Rat AR)
Preparation of rat AR fraction: Prostates were harvested into ice-cooled ET buffer (10 mM Tris, 1 mM EDTA, 5 mM DTT, 10 mM sodium molybdate, pH 7.4) 3 days after orchiectomy in 11-week-old male SD rats. The prostate was finely cut, and ET buffer was added, whereafter the mixture was homogenized using a homogenizer. The homogenate was ultracentrifuged (100,000×g, 60 min, 4° C.), and the supernatant was used as a rat AR fraction (hereinafter referred to as ARF).
Binding test: ^3H-testosterone (hereinafter referred to as ^3H-T) was diluted with ET buffer. Dihydrotestosterone (DHT) was prepared so as to have a concentration (final concentration 1 μM) 400 times the maximum concentration of ^3H-T (2.5 nM). The ^3H-T solution was added to a 1.5 ml tube containing DHT, no DHT, or the test compound with a varying concentration. Further, 200 μg ARF was added to adjust the final volume to 100 μl. The mixture was incubated for 2 hours at 4° C., and then 300 μl of a 0.05% dextran T70-1.0% activated carbon solution was added. The mixture was further incubated for 15 minutes in ice to remove the free ^3H-T. After centrifugation (4° C., 2,500 rpm, 5 min), 275 μl of the supernatant was harvested into a liquid scintillation vial, and 2 ml of clear-sol was added. The mixture was stirred, allowed to stand, and measured for ^3H radioactivity with a liquid scintillation counter. […]
a: Radioactivity of the sample incorporating the compound of the present invention (^3H-T+compound) b: Radioactivity of the sample free from the compound of the present invention (only ^3H-T: amount of total binding) c: Radioactivity of the sample incorporating DHT (^3H-T+DHT: amount of nonspecific binding) The relative binding inhibition rate (RBA: Relative Binding Affinity) was obtained from the following equation (Endocrinology 138, 863-870, 1997): […]

[2] = test system: Orchiectomized (ORX) Rats; assay: Action of increasing prostate weight and bone mass in orchiectomized (ORX) rats, 4 weeks; type: in vivo, rat; conditions: for Bone mineral density / Prostate weight: ORX SD rats, s.c. once daily, 5 days weekly, 4 weeks, DHT 10 mg/kg, Ex. 23 30 mg/kg, Mean ± SD; for Bone mineral density: right femur
Protocol: Orchiectomy was performed in 12-week-old male SD rats. […] In an ORX control group (Vehicle), dimethyl sulfoxide diluted with olive oil was used for the test. […] On the next day after final administration, the wet weight of the ventral prostate was measured to evaluate the AR agonistic effect of the compound of the present invention. On the next day following final administration, moreover, the right femur was removed, and fixed overnight in a 10% neutrally buffered formalin solution.

[3] = test system: Orchiectomized (ORX) Rats; assay: Action of increasing prostate weight in orchiectomized (ORX) rats, 8 days; type: in vivo, rat; conditions: for Weight of prostate: ORX SD rats, s.c. once daily for 8 days, DHT 10 mg/kg, Ex. 23 30 mg/kg, ventral prostate wet weight, Mean ± SD
Protocol: Testes were removed from 8-week-old male SD rats. […] In an ORX control group (Vehicle), dimethyl sulfoxide diluted with olive oil was used for the test. […] On the next day after final administration, the wet weight of the ventral prostate was measured to evaluate the AR agonistic effect of the compound of the present invention.

[4] = test system: Ovariectomized (OVX) Rats; assay: Action of increasing bone mass in ovariectomized (OVX) rats, 8 weeks; type: in vivo, rat; conditions: for Bone mineral density: OVX female SD rats, right femur, s.c. once daily, 5 days weekly, 8 weeks from 4 weeks postoperatively, DHT 10 mg/kg, Ex. 23 30 mg/kg, Mean ± SD
Protocol: Action of Increasing Bone Mass in Ovariectomized (OVX) Rats
Ovariectomy was performed in 12-week-old female SD rats. […] In an OVX control group (Vehicle), dimethyl sulfoxide diluted with olive oil was used for the test. […] On the next day after final administration, the right femur was removed, and fixed overnight in a 10% neutrally buffered formalin solution.

male rats = assay: AR antagonistic effect: inhibition of testosterone propionate-induced prostate weight increase; type: in vivo, rat; conditions: suggested by a Test Example; no data given
Protocol: Testes were removed from male rats. From 5 days postoperatively, testosterone propionate and the compound of the present invention were simultaneously administered once daily for one consecutive week by the subcutaneous route. On the next day after final administration, the wet weight of the ventral prostate was measured to evaluate the AR antagonistic effect of the compound of the present invention based on its inhibitory action on testosterone propionate-induced prostate weight increase.

## CC(C)(CO)C1CC(NCc2ccccc2)c2cc([N+](=O)[O-])ccc2N1 (centres unmarked) [Example 30, 2-(4-Benzylamino-6-nitro-1,2,3,4-tetrahydroquinolin-2-yl)-2-methylpropan-1-ol]
[1]
  RBA (Relative Binding Affinity): 370

## CC(C)(O)C(=O)Nc1ccc([N+](=O)[O-])c(C(F)(F)F)c1 [Hydroxyflutamide, reference compound]
[1]
  RBA (Relative Binding Affinity): 100

## CN(C)C1CC(C(C)(C)CO)Nc2ccc([N+](=O)[O-])cc21 (centres unmarked) [Example 23, 2-(4-dimethylamino-6-nitro-1,2,3,4-tetrahydroquinolin-2-yl)-2-methylpropan-1-ol]
[2]
  Bone mineral density: 134 ± 6 mg/cm^2
  Prostate weight: 78 ± 10 mg/body weight 100 g
[2]; ORX rats, administered for 4 weeks, 30 mg/kg s.c.
  Effect on atrophied prostate (in words): restored the atrophied prostate up to the level of the normal control
[2]; ORX rats, administered for 4 weeks, 30 mg/kg s.c., vs control group
  Effect on bone mineral density (in words): significantly increased the decreased bone mineral density
[3]
  Weight of prostate: 52 ± 12 mg/body weight (100 g)
[3]; ORX rats, consecutively administered for 8 days, 30 mg/kg s.c.
  Effect on prostate weight (in words): significantly increased prostate weights in comparison with the ORX control
[4]
  Bone mineral density: 120.9 ± 3.9 mg/cm^2
[4]; OVX rats, administered for 8 weeks, 30 mg/kg s.c.
  Effect on bone mineral density (in words): significantly increased the bone mineral density

## CN(C)C1CC(C(C)(C)COC(=O)c2ccc(F)cc2)Nc2ccc([N+](=O)[O-])cc21 (centres unmarked) [Example 11, 4-Fluorobenzoic acid 2-(4-dimethylamino-6-nitro-1,2,3,4-tetrahydroquinolin-2-yl)-2-methyl-propyl ester]
[1]
  RBA (Relative Binding Affinity): 98

## C[C@]12CCC(=O)C[C@@H]1CC[C@@H]1[C@@H]2CC[C@]2(C)[C@@H](O)CC[C@@H]12 [DHT, dihydrotestosterone, reference compound]
[2]
  Bone mineral density: 130 ± 7 mg/cm^2
  Prostate weight: 150 ± 14 mg/body weight 100 g
[3]
  Weight of prostate: 68 ± 16 mg/body weight (100 g)
[4]
  Bone mineral density: 120.8 ± 4.4 mg/cm^2

## CC(=O)OCC(C)(C)C1CC(N(C)C)c2cc([N+](=O)[O-])ccc2N1 (centres unmarked) [Example 9, Acetic acid 2-(4-dimethylamino-6-nitro-1,2,3,4-tetrahydroquinolin-2-yl)-2-methyl-propyl ester]
[1]
  RBA (Relative Binding Affinity): 79

## CCCN(CCC)C1CC(C(C)(C)CO)Nc2ccc([N+](=O)[O-])cc21 (centres unmarked) [Example 33, 2-(4-Di-n-propylamino-6-nitro-1,2,3,4-tetrahydroquinolin-2-yl)-2-methylpropan-1-ol]
Male rats
  AR antagonistic effect (in words): AR antagonist

Source: patent US6777427B2, “Tetrahydroquinoline compounds” (priority 2000, dated 2004)
